These are literature values, as cited in patent publication US9744192B2, “Methods of treating chronic rhinosinusitis” (priority 2015, dated 2017).

For data set [1] the following is noted: aqueous solution, pH=7.4.
Data set [2] concerns Saccharomyces cerevisiae cells. To be noted: living cells.
A further data set concerns Candida albicans. To be noted: for strains with complete growth inhibition: 1% aqueous boric acid.
Data set [3] relates to Bacillus shiga-kruse (aka: Shigella dysenteriae). To be noted: 2-3% aqueous boric acid, agar culture.
Data set [4] has as its system 17 bacteria and fungi (human pathogens).
The subject of data set [5] is 17 bacterial strains including Staphylococcus aureus, Enterococcus faecalis, E. coli, Klebsiella pneumonia and others. To be noted: 2.5% boric acid.

Like-named read-outs stand apart in the source and are kept apart here.

Turning to `OB(O)O` [boric acid, Boric acid], the “tissue irritation or other adverse events” value (in vivo) is recorded as “little or no evidence”. The “absorption across uninjured skin or vaginal epithelium” value (topical) is listed as “not significantly absorbed”. In addition, in data set [1], the “borate B(OH)4− share of equilibrium” value is 1.6% and the “free boric acid B(OH)3 share of equilibrium” value was 98.4%. Further, the “effect on cell morphology” value in data set [2] is recorded as “alter the morphology”. Besides, the “strains with complete growth inhibition” value in the data set with Candida albicans (fluconazole-resistant strains) is on record as 24 of the 25. The “strains with complete growth inhibition” value with Candida albicans (fluconazole-susceptible strains) was 45 of the 46. In addition, the “sudden physical membrane damage” value in the data set with Candida albicans (1% boric acid) is given as “No sign of sudden physical membrane damage”. Also, in the data set on Candida albicans (24 hour exposure to 1% boric acid), the membrane integrity result is on record as “decreased only slightly”. The agglutination entry in data set [3] is reported as “marked agglutination”. In addition, the “integrity of initial bacterial or fungal counts” value in data set [4] (boric acid 1.8-2%, urine samples, up to 24 hours at 24° C.) was “maintained for all human pathogens studied”. Further, in data set [4] (preserved samples diluted out), the “reversibility of the bacteriostatic effect after dilution into nutrient culture media” value was “rapid and complete reversibility”. Further, the “bacterial strains with complete growth inhibition” value in data set [5] is given as 17 of 17.
